{"source": "patent US7795226B2", "about": "“Control of radiation injury” (Biotempt B.V., priority 2006, dated 2010)", "key": {"[1]": {"tested_on": "renal ischemia reperfusion in mice", "assay": "mouse renal ischemia reperfusion test", "type": "in vivo", "design": "BUN after 25 minutes renal ischemia, mean / Urea levels in dose-response experiment: unit not given here", "settings": "for BUN concentration versus the PBS control group (in words) / mortality versus the PBS control group (in words) / BUN after 25 minutes renal ischemia, mean: 5 mg/kg i.v.; for mortality at 72 hours post-reperfusion: 5 mg/kg i.v. before and after 25 minutes clamping, dead/total", "method": "Six oligopeptides (i.e., A: LAGV (SEQ ID NO:121); B: AQGV (SEQ ID NO:120); C: LAG; D: AQG; E: MTR; and F: MTRV (SEO ID NO:119)) were tested and compared with PBS (control) in a double blind animal study for each peptide's relative ability to aid recovery in a mouse renal ischemia reperfusion test. In this test, the mice were anesthetized, and one kidney from each mouse was removed. The other kidney was tied off for 25 minutes, and the serum urea levels were allowed to increase. Both before and after tying off, each of the separate peptides was administered to thirty (30) different mice (5 mg oligopeptide / kg body mass intravenously), after which, the mortality of the mice was determined for each oligopeptide as well as was the BUN concentration at two hours, 24 hours and 72 hours. The results are shown in Table 3 below (excluding the results of peptide A (LAGV (SEQ ID NO:121)) obtained in Example 3).\nUnder inhalation anesthesia, the left kidney with its artery and vein was isolated and occluded for 25 minutes using a microvascular clamp. During surgery, animals were placed on a heating pad to maintain body temperature at 37° C. Five minutes before placing the clamp, and five minutes before releasing the clamp, 5 mg/kg of peptide dissolved in 0.1 mL of sterile saline, was administered intravenously. After reperfusion of the left kidney, the right kidney was removed. Kidney function was assessed by measuring blood urea nitrogen before clamping, and at 2, 24, and 72 hours after reperfusion.\nPeptides were tested at 0.3, 1, 3, 10 and 30 mg/kg dosages given as described in Example 3. P values (calculated by Mann Whitney U-test (SPSS for Windows)) of serum urea levels of PBS compared to peptide D groups at 72 hours post-clamping were at 0.3 mg/kg 0.001, at 1 mg/kg 0.009, at 3 mg/kg 0.02, at 10 mg/kg 0.000, and at 30 mg/kg 0.23; for peptide B (SEQ ID NO:120) groups, these P-values were 0.88, 0.054, 0.000, 0.001 and 0.003."}, "[2]": {"tested_on": "high dose LPS (E. coli 026:B6)-induced septic shock in BALB/c mice", "assay": "high dose LPS-induced septic shock, peptide administered twice", "type": "in vivo", "settings": "peptide twice (t = 2 and 24 hours) 5 mg/kg", "method": "Mice used in sepsis or septic shock experiments: Female BALB/c mice of eight to twelve weeks of age were used for all experiments. The animals were bred in our facility under specific pathogen-free conditions according to the protocols described in the […] of European Laboratory Animal Science Associations (FELASA) Working group on Animal Health (Laboratory Animals 28:1-24, 1994).\nInjection protocols: For the endotoxin model, BALB/c mice were injected i.p. with 150-300 μg LPS (E. coli 026:B6; Difco Lab., Detroit, Mich., USA). Control groups were treated with PBS i.p. only. To test the effect of peptides, they were dissolved in PBS and injected i.p. at predetermined points in time after LPS treatment.\nMice were scored for sickness severity using the following measurement scheme: • 0 No abnormalities. • 1 Percolated fur, but no detectable behavior differences compared to normal mice. • 2 Percolated fur, huddle reflex, responds to stimuli (such as tap on cage), just as active during handling as healthy mouse. • 3 Slower response to tap on cage, passive or docile when handled, but still curious when alone in a new setting. • 4 Lack of curiosity, little or no response to stimuli, quite immobile. • 5 Labored breathing, inability or slow to self-right after being rolled onto back (moribund, sacrificed). • D Dead.\nA second set of septic shock experiments were set up to determine which of the peptides LQG, LQGV (SEQ ID NO:117), VLPALP (SEQ ID NO:140), VLPALPQ (SEQ ID NO:143), MTR, MTRV (SEQ ID NO:119), VVC or AQG, AQGV (SEQ ID NO:120), LAG and LAGV (SEQ ID NO:121) were capable of inhibiting high dose LPS-induced septic shock in mice by treating mice with a double dose of peptide at two and 24 hours after LPS treatment. At each treatment, peptides were used at 5 mg/kg bodyweight. BALB/c mice were injected i.p. with high doses LPS (E. coli 026:B6; Difco Lab., Detroit, Mich. USA), predetermined to be leading to 80 to 100% mortality in 24 to 72 hours."}, "[3]": {"tested_on": "cell-cycle marker pCDG and auxin-responsive marker DR5::GUS", "assay": "Arabidopsis thaliana seedling cell-cycle analysis (GUS markers)", "settings": "Results from Examples 9 and 10", "method": "To further study anti-cell-cycle activity of various oligopeptides, a proliferation experiment in Arabidopsis Thaliana seedlings was performed. The aim was to test a group of 140 oligopeptides of varying length for their effect on plant marker gene expression during rapid growth when avid cell division occurs.\nThe peptides were re-suspended in 1× Phosphate Buffer Saline (PBS) pH 8 to a final concentration of 5 mg/ml. The obtained solutions were then divided through 96-well round bottom plates (Corning Incorporated) at 40 microliters per well. Plates were stored before use at […] for four days. Seeds of Arabidopsis thaliana ecotype Ws-0 were surface sterilized in 2% commercial bleach (Gloria) for ten minutes and washed five times with sterile MQ water. The seeds were then re-suspended with 0.1% agar and plated on MS20 plates supplemented with 80 mg/l Kanamycin.\nThe plates were placed at […] for two nights and then transferred to a climate room at […] and a 16/8 hours photoperiod. After four days of growth, the seedlings were transferred to 96-well plates containing the peptide solutions (four seedlings per well) and incubated for four and eight hours.\nFor this experiment, Arabidopsis homozygous seedlings harboring two reporter genes fused to GUS were used. […] After incubation with the compounds, the seedlings were stained for GUS. The staining reaction was performed in 100 mM sodium phosphate buffer (pH 7.0) that contained 10 mM EDTA, 10% DMSO, 0.1% Triton X-100, 2 mM X-Gluc, 0.5 mM K3Fe(CN)6 and 0.5 mM K4Fe(CN)6 at […] for 16 hours. […] Seedlings were fixed and cleared in chloral hydrate solution for detailed microscopic observation and photography under a microscope equipped with DIC optics.\nPeptides were tested for an effect on marker gene expression on rapidly growing Arabidopsis young seedlings. This was monitored by changes on GUS distribution in different organs: root, root-hypocotyl transition zone and cotyledons."}}, "data": [{"substance": "AQG", "values": [{"measurement": "Mortality in dose-response experiment", "setting": "[1]; 0.3 mg/kg, 24 hours", "value": "0-10"}, {"measurement": "Urea levels in dose-response experiment", "setting": "[1]; 0.3 mg/kg, 24 hours", "value": 38.4}, {"measurement": "Mortality in dose-response experiment", "setting": "[1]; 0.3 mg/kg, 72 hours", "value": "2-8"}, {"measurement": "Urea levels in dose-response experiment", "setting": "[1]; 0.3 mg/kg, 72 hours", "value": 30.4}, {"measurement": "Mortality in dose-response experiment", "setting": "[1]; 1.0 mg/kg, 24 hours", "value": "0-10"}, {"measurement": "Urea levels in dose-response experiment", "setting": "[1]; 1.0 mg/kg, 24 hours", "value": 48.4}, {"measurement": "Mortality in dose-response experiment", "setting": "[1]; 1.0 mg/kg, 72 hours", "value": "1-8"}, {"measurement": "Urea levels in dose-response experiment", "setting": "[1]; 1.0 mg/kg, 72 hours", "value": 38.4}, {"measurement": "Mortality in dose-response experiment", "setting": "[1]; 3.0 mg/kg, 24 hours", "value": "0-10"}, {"measurement": "Urea levels in dose-response experiment", "setting": "[1]; 3.0 mg/kg, 24 hours", "value": 39.3}, {"measurement": "Mortality in dose-response experiment", "setting": "[1]; 3.0 mg/kg, 72 hours", "value": "0-10"}, {"measurement": "Urea levels in dose-response experiment", "setting": "[1]; 3.0 mg/kg, 72 hours", "value": 40.3}, {"measurement": "BUN concentration versus the PBS control group (in words)", "setting": "[1]", "value": "no reducing effect on BUN concentration"}, {"measurement": "mortality versus the PBS control group (in words)", "setting": "[1]", "value": "significant reduction of mortality"}, {"measurement": "mortality at 72 hours post-reperfusion", "setting": "[1]", "value": "4/10"}, {"measurement": "Mortality in dose-response experiment", "setting": "[1]; 10.0 mg/kg, 24 hours", "value": "0-8"}, {"measurement": "Urea levels in dose-response experiment", "setting": "[1]; 10.0 mg/kg, 24 hours", "value": 46.8}, {"measurement": "Mortality in dose-response experiment", "setting": "[1]; 10.0 mg/kg, 72 hours", "value": "1-10"}, {"measurement": "Urea levels in dose-response experiment", "setting": "[1]; 10.0 mg/kg, 72 hours", "value": 25.8}, {"measurement": "Mortality in dose-response experiment", "setting": "[1]; 30.0 mg/kg, 24 hours", "value": "0-8"}, {"measurement": "Urea levels in dose-response experiment", "setting": "[1]; 30.0 mg/kg, 24 hours", "value": 52.8}, {"measurement": "Mortality in dose-response experiment", "setting": "[1]; 30.0 mg/kg, 72 hours", "value": "1-8"}, {"measurement": "Urea levels in dose-response experiment", "setting": "[1]; 30.0 mg/kg, 72 hours", "value": 58.9}, {"measurement": "BUN after 25 minutes renal ischemia, mean", "setting": "[1]; 2 hours after reperfusion", "value": 17.7}, {"measurement": "BUN after 25 minutes renal ischemia, mean", "setting": "[1]; 24 hours after reperfusion", "value": 66.76}, {"measurement": "BUN after 25 minutes renal ischemia, mean", "setting": "[1]; 72 hours after reperfusion", "value": 91.18}, {"measurement": "BUN levels in dose-response experiment (in words)", "setting": "[1]; lower dosages tested (0.3-30 mg/kg range), compared with peptide B", "value": "did reduce BUN levels surprisingly well at the lower dosages tested"}, {"measurement": "BUN after 25 minutes renal ischemia, mean", "setting": "[1]; t = 0 hr (before clamping)", "value": 9.304}, {"measurement": "mice with sickness score 1, effect at t = 24 hours", "setting": "[2]; LPS dose 10.5", "value": 2}, {"measurement": "mice with sickness score 1, effect at t = 48 hours", "setting": "[2]; LPS dose 10.5", "value": 2}, {"measurement": "mice with sickness score 2, effect at t = 24 hours", "setting": "[2]; LPS dose 10.5", "value": 1}, {"measurement": "mice with sickness score 2, effect at t = 48 hours", "setting": "[2]; LPS dose 10.5", "value": 3}, {"measurement": "mice with sickness score 3, effect at t = 24 hours", "setting": "[2]; LPS dose 10.5", "value": 2}, {"measurement": "mice with sickness score 1, effect at t = 24 hours", "setting": "[2]; LPS dose 11", "value": 4}, {"measurement": "mice with sickness score 2, effect at t = 48 hours", "setting": "[2]; LPS dose 11", "value": 6}, {"measurement": "mice with sickness score 3, effect at t = 24 hours", "setting": "[2]; LPS dose 11", "value": 2}, {"measurement": "identified as useful peptide for treatment of radiation injury from cell-cycle studies in plants and in vitro proliferation studies", "setting": "[3]", "value": "useful"}]}, {"substance": "LAG", "values": [{"measurement": "BUN concentration versus the PBS control group (in words)", "setting": "[1]", "value": "no reducing effect on BUN concentration"}, {"measurement": "mortality versus the PBS control group (in words)", "setting": "[1]", "value": "significant reduction of mortality"}, {"measurement": "mortality at 72 hours post-reperfusion", "setting": "[1]", "value": "4/10"}, {"measurement": "BUN after 25 minutes renal ischemia, mean", "setting": "[1]; 2 hours after reperfusion", "value": 18.13}, {"measurement": "BUN after 25 minutes renal ischemia, mean", "setting": "[1]; 24 hours after reperfusion", "value": 59.24}, {"measurement": "BUN after 25 minutes renal ischemia, mean", "setting": "[1]; 72 hours after reperfusion", "value": 74.4}, {"measurement": "BUN after 25 minutes renal ischemia, mean", "setting": "[1]; t = 0 hr (before clamping)", "value": 10.15}, {"measurement": "mice scored D (dead), effect at t = 48 hours", "setting": "[2]; LPS dose 10.5", "value": 6}, {"measurement": "mice with sickness score 5, effect at t = 24 hours", "setting": "[2]; LPS dose 10.5", "value": 5}, {"measurement": "mice scored D (dead), effect at t = 48 hours", "setting": "[2]; LPS dose 11", "value": 6}, {"measurement": "mice with sickness score 5, effect at t = 24 hours", "setting": "[2]; LPS dose 11", "value": 6}, {"measurement": "identified as useful peptide for treatment of radiation injury from cell-cycle studies in plants and in vitro proliferation studies", "setting": "[3]", "value": "useful"}]}]}
